Measured values as given in patent publication US20230323410A1, “BACTERIAL CELLS AND METHODS FOR PRODUCTION OF 2-FLUORO-CIS,CIS-MUCONATE” (priority 2020, published 2023).
Entries after “also recorded” stand apart in the source; their conditions may differ. Where two headings read alike, the source gives them in different places.

Experiments:
CatR/Pcat = type: cell-based, P. putida KT2440
P. knackmussii [1] = assay: Microtiter plate cultivation: growth with metabolites of the bioconversion
P. knackmussii [2] = assay: Shaken flask fermentation with 10 mM 2-FBz or 3-FBz; type: cell-based, Pseudomonas knackmussii; conditions: 10 mM 3-FBz
Pmuc10 = assay: Microtiter plate cultivation: growth with metabolites of the bioconversion; conditions: for Maximum growth rate μmax: Example 6 (improved method)
XylS/Pm = type: cell-based, P. putida KT2440; conditions: for GFP expression from Pm relative to the one brought about by 1.0 mM 3-mBz: 5.0 mM inducer; for GFP expression under Pm(ML1-17) control relative to the expression provided by Pm: compound as inducer
Pmuc3 pSEVA228 = type: cell-based, Pseudomonas putida
BenR/Pben = type: cell-based, P. putida KT2440; conditions: for increase of induction compared to the uninduced system: 5 mM
[3] = Example 1, 30 mM glucose, 5.0 mM additive
[4] = Example 1, 30 mM glucose, 10 mM additive
[5] = Example 1, 30 mM glucose, 15 mM additive
[6] = Example 1, 30 mM glucose, 20 mM additive
[7] = Example 6 (improved method), 30 mM glucose, 5.0 mM additive
[8] = Example 6 (improved method), 30 mM glucose, 10 mM additive
[9] = Example 6 (improved method), 30 mM glucose, 15 mM additive
[10] = Example 6 (improved method), 30 mM glucose, 20 mM additive
[11] = Example 1, 30 mM glucose, 0.5 mM additive
[12] = Example 1, 30 mM glucose, 1.0 mM additive
[13] = Example 1, 30 mM glucose, 2.0 mM additive
[14] = Example 6 (improved method), 30 mM glucose, 0.5 mM additive
[15] = Example 6 (improved method), 30 mM glucose, 1.0 mM additive
[16] = Example 6 (improved method), 30 mM glucose, 2.0 mM additive
[17] = Example 1, 30 mM as sole carbon source
[18] = Example 6 (improved method), 30 mM as sole carbon source

Structure (SMILES): O=C(O)c1cccc(F)c1 [Strain 3-FBz, 3-fluorobenzoic acid]
- induction (CatR/Pcat; 0.5 mM): most strongly and fully induced
- Maximum growth rate μmax (P. knackmussii [1]; [3]): almost completely impaired
- Maximum growth rate μmax (P. knackmussii [1]; Example 1, 30 mM glucose, 5.0 mM additive, listed as K-3-F-benzoate): 0.01 h⁻¹
- Maximum growth rate μmax (P. knackmussii [1]; [4]): no growth
- Maximum growth rate μmax (P. knackmussii [1]; [5]): no growth
- Maximum growth rate μmax (P. knackmussii [1]; [6]): no growth
- Maximum growth rate μmax (P. knackmussii [1]; [7]): almost completely impaired
- Maximum growth rate μmax (P. knackmussii [1]; Example 6 (improved method), 30 mM glucose, 5.0 mM additive, listed as K-3-F-benzoate): 0.04 h⁻¹
- Maximum growth rate μmax (P. knackmussii [1]; [8]): no growth
- Maximum growth rate μmax (P. knackmussii [1]; [9]): no growth
- Maximum growth rate μmax (P. knackmussii [1]; [10]): no growth
- qs (P. knackmussii [2]; Example 1): 0.090 mmol gCDW^−1 h^−1
- qs (P. knackmussii [2]; Example 6): 1.01 mmol gCDW^−1 h^−1
- maximum concentration in the presence of which the strain was able to grow (P. putida KT2440; 30 mM glucose, substantially reduced μmax): 10 mM
- Maximum growth rate μmax (P. putida KT2440; [3]): 0.36 h⁻¹
- Maximum growth rate μmax (P. putida KT2440; [4]): 0.13 h⁻¹
- Maximum growth rate μmax (P. putida KT2440; [5]): no growth
- Maximum growth rate μmax (P. putida KT2440; [6]): no growth
- Maximum growth rate μmax (P. putida KT2440; [7]): 0.25 h⁻¹
- Maximum growth rate μmax (P. putida KT2440; [8]): 0.13 h⁻¹
- Maximum growth rate μmax (P. putida KT2440; [9]): no growth
- concentration up to which no toxic effects were observed (Pmuc10; 30 mM glucose, FIG. 13): ≤ 20000 µM
- highest concentration at which the strain was able to produce biomass (Pmuc10; 30 mM glucose, FIG. 13, strongly reduced rate and maximum biomass concentration): ≤ 50 mM
- Maximum growth rate μmax (Pmuc10; 30 mM glucose, 10 mM additive): 0.45 h⁻¹
- Maximum growth rate μmax (Pmuc10; 30 mM glucose, 20 mM additive): 0.47 h⁻¹
- Maximum growth rate μmax (Pmuc10; 30 mM glucose, 30 mM additive): 0.27 h⁻¹
- Maximum growth rate μmax (Pmuc10; 30 mM glucose, 40 mM additive): 0.24 h⁻¹
- Maximum growth rate μmax (Pmuc10; 30 mM glucose, 50 mM additive): 0.20 h⁻¹
- expression strength (XylS/Pm; 1.0 mM): close to the basal, uninduced expression
- GFP expression from Pm relative to the one brought about by 1.0 mM 3-mBz (XylS/Pm): 7%
- GFP expression under Pm(ML1-17) control relative to the expression provided by Pm (XylS/Pm): 70%
- Maximum growth rate μmax (Pmuc3 pSEVA228; [4]): 0.33 h⁻¹
- Maximum growth rate μmax (Pmuc3 pSEVA228; [5]): 0.32 h⁻¹
- Maximum growth rate μmax (Pmuc3 pSEVA228; [6]): 0.30 h⁻¹
- Maximum growth rate μmax (Pmuc3 pSEVA228; [8]): 0.33 h⁻¹
- Maximum growth rate μmax (Pmuc3 pSEVA228; [9]): 0.32 h⁻¹
- Maximum growth rate μmax (Pmuc3 pSEVA228; [10]): 0.30 h⁻¹
- increase in GFP expression over basal expression (BenR/Pben; 1.0 mM): No further increase
- increase of induction compared to the uninduced system (BenR/Pben): 70%

Structure (SMILES): Oc1ccccc1O [catechol, pyrocatechol]
- Maximum growth rate μmax (P. knackmussii [1]; [11]): 0.36 h⁻¹
- Maximum growth rate μmax (P. knackmussii [1]; [12]): 0.33 h⁻¹
- Maximum growth rate μmax (P. knackmussii [1]; [13]): 0.31 h⁻¹
- Maximum growth rate μmax (P. knackmussii [1]; [14]): 0.36 h⁻¹
- Maximum growth rate μmax (P. knackmussii [1]; [15]): 0.33 h⁻¹
- Maximum growth rate μmax (P. knackmussii [1]; [16]): 0.29 h⁻¹
- toxic effect (P. knackmussii [1]; up to 2 mM): slightly toxic effect; also recorded: Only a little toxic effect
- Maximum growth rate μmax (P. putida KT2440; [11]): 0.72 h⁻¹
- Maximum growth rate μmax (P. putida KT2440; [12]): 0.77 h⁻¹
- Maximum growth rate μmax (P. putida KT2440; [13]): 0.78 h⁻¹
- increase of μmax with increasing concentration (P. putida KT2440; Example 1, up to 2 mM): up to 30%
- Maximum growth rate μmax (P. putida KT2440; [14]): 0.69 h⁻¹
- Maximum growth rate μmax (P. putida KT2440; [15]): 0.71 h⁻¹
- Maximum growth rate μmax (P. putida KT2440; [16]): 0.68 h⁻¹
- Maximum growth rate μmax (Pmuc3 pSEVA228; [13]): 0.86 h⁻¹
- Maximum growth rate μmax (Pmuc3 pSEVA228; [14]): 0.62 h⁻¹
- Maximum growth rate μmax (Pmuc3 pSEVA228; [15]): 0.74 h⁻¹
- Maximum growth rate μmax (Pmuc3 pSEVA228; [16]): 0.81 h⁻¹

Structure (SMILES): O=C([O-])c1ccccc1.[K+] [K-benzoate, potassium benzoate]
- GFP fluorescence as compared to the induction by 3-FBz (CatR/Pcat; 5 mM): 35%
- Maximum growth rate μmax (P. knackmussii [1]; [17]): no growth
- Maximum growth rate μmax (P. knackmussii [1]; [18]): no growth
- Maximum growth rate μmax (P. putida KT2440; [17]): 0.37 h⁻¹
- Maximum growth rate μmax (P. putida KT2440; [18]): 0.62 h⁻¹
- Maximum growth rate μmax (Pmuc10; 30 mM as sole carbon source): 0.53 h⁻¹
- GFP expression from Pm relative to the one brought about by 1.0 mM 3-mBz (XylS/Pm): 20%
- Maximum growth rate μmax (Pmuc3 pSEVA228; Example 1, 30 mM K-benzoate as carbon source, 0.5 mM 3-mBz): 0.16 h⁻¹
- Maximum growth rate μmax (Pmuc3 pSEVA228; Example 6 (improved method), 30 mM K-benzoate as carbon source, 0.5 mM 3-mBz): 0.16 h⁻¹
- increase in GFP expression over basal expression (BenR/Pben; 2.0 mM): No further increase
- increase of induction compared to the uninduced system (BenR/Pben): 70%

Structure (SMILES): Cc1cccc(C(=O)O)c1 [Strain 3-mBz, 3-methyl benzoate, reference compound]
- response (CatR/Pcat; 1.0 mM): no response at all
- GFP expression under Pm(ML1-17) control relative to the expression provided by Pm (XylS/Pm): 70%
- induction by 1 mM as compared to 5 mM of the inducer (XylS/Pm; data not shown): 94%
- increase in GFP expression over basal expression (BenR/Pben; 1.0 mM): No further increase
